Experimental data published in ChEMBL document CHEMBL1146985, “Investigation of the mechanism of action of 3-(4-bromophenyl)-5-acyloxymethyl-2,5-dihydrofuran-2-one against Candida albicans by flow cytometry” (Bioorg Med Chem Lett, 2006).
Active and inactive are the calls of the source. The rule behind the calls is not given here.

How the values were obtained:
[1] = tested on: Candida albicans; test: Antifungal activity against Candida albicans ATCC 90028 at 10 ug/ml; type: functional, organism-based
[2] = tested on: Candida albicans; test: Antifungal activity against Candida albicans ATCC 90028 at 100 ug/ml; type: functional, organism-based

| SMILES | Activity [1] | Activity [2] |
| --- | --- | --- |
| CC(=O)OCC1C=C(c2ccc(Br)cc2)C(=O)O1 (configuration not stated) | Active | – |
| O=C1OC(CO)C=C1c1ccc(Br)cc1 (configuration not stated) | – | Active |
